According to patent publication US20080242594A1, “Methods for Promoting Stem Cell Proliferation and Survival” (priority 2005, published 2008):
Entries after “also recorded” stand apart in the source; their conditions may differ.

Columns and labels:
[1] = test system: STAT3; test: STAT3 phosphorylation (Ser727, Tyr705) immunoblot in CNS stem cells; type: cell-based, mouse; conditions: for effect on STAT3-Ser727 phosphorylation following Notch activation: Notch ligand treated CNS stem cells
Source text: Ligands that activate JAK/STAT signaling promote astrocytic differentiation of CNS stem cells (Johe et al., Genes Dev 10:3129-40, 1996; Raj an et al., J Neurosci 18:3620-9, 1998; Bonni et al., Science 278:477-83, 1997; Song et al., Nat Neurosci 7:229-35, 2004; He et al., Nat Neurosci 8:616-625, 2005). When applying CNTF to CNS stem cells it was noted that low concentrations of CNTF stimulated survival but not expression of astrocyte specific genes. This is consistent with previous observations of Akt phosphorylation downstream of gp130 activation (Taga et al., Annu Rev Immunol 15:797-819, 1997). […] At high concentrations (20 ng/ml) the phosphorylation of Tyr705 can be blocked by an inhibitor of JAK while allowing a CNTF-induced increase in Ser727 phosphorylation (FIG. 2B) (Thompson et al., Bioorg Med Chem Lett 12:1219-23, 2002).
CNTF was used as a positive control; CNTF, induced the phosphorylation on both sites. With both CNTF and Notch activation, phosphorylation peaked at around 30 min. STAT3 phosphorylation on Ser727 following Notch activation was sensitive to the γ-secretase inhibitor DAPT (FIG. 2e). […] In contrast to CNTF, no Tyr705 phosphorylation was detected at any of the doses of Notch receptor ligands.
It was determined that insulin also maintains phosphorylation of serine 727 in STAT3 in foetal neural stem cell cultures.

[2] = test system: Hes3; test: Hes3 expression (RT-PCR, immunohistochemistry) in CNS stem cells; type: cell-based, mouse; conditions: for effect on Jagged-induced Hes3 mRNA induction: CNTF at high concentrations (>1 ng/ml)
Protocol: RT-PCR: For reverse-transcriptase PCR analysis, RNA was extracted from cell cultures or brain homogenates with Trizol (Invitrogen, 15596-026), and PCR reactions were performed with the ProSTAR First-Strand RT-PCR Kit (Stratagene, 200420). Primers were used for the following genes: Hes1, Hes2, Hes3, Hes5, Hes6, Hey2; Hes7
Notch signaling regulates transcription of the Hes/Hey gene family, a group of genes implicated in the control of differentiation (Iso et al., J Cell Physiol 194:237-55, 2003). RT-PCR was used to assess mRNA regulation of these genes one hour after Notch activation in CNS stem cells. […] The ability of high concentrations of CNTF to inhibit Hes3 induction following Notch activation was dependent on JAK activity (FIG. 4e). In contrast, in the absence of added Notch ligand, Hes3 mRNA levels were elevated by high CNTF and the JAK inhibitor (FIG. 4e).
Conversely, treatment with ciliary neurotrophic factor (CNTF), a cytokine that opposes the signal transduction pathway downstream of Notch activation opposed the ability of D114 to induce Hes3 transcription. Immunohistochemical experiments were performed that documented D114, CNTF regulate Hes3 expression. Thus, at the protein expression level, D114 maintains and CNTF inhibits Hes3 expression.

[3] = test system: Notch1; test: Notch activation (Notch1IC / Notch ICD) immunocytochemical detection; type: cell-based, mouse; conditions: Notch ligands 1 hour
Source text: Antibodies were used that specifically bind: Notch1IC (Chemicon, 5352), GFP (Molecular Probes, A11122), Oct3/4 (Santa Cruz, sc-5279), SSEA1 and SSEA4 (Developmental Studies HybridomaBank), Tra-1-60 (Chemicon, MAB4360), Tra-1-81 (Chemicon, MAB4381), human nestin (Chemicon, MAB5326), Sox-1 (Gift from Dr. R Lovell-Badge), TH (Pel-Freez, P40101-0), Tuj1 (Covance, MMS-435P), rat nestin (McKay Lab), GFAP (Dako, z0334), CNPase (Chemicon, MAB326), BrdU (Accurate, H5903), DCX (Santa Cruz, sc-8066), Sox2 (R&D, MAB2018), Hu (Molecular Probes, A21271).
To assay for Notch activation, cultures were treated with the Notch ligands for 1 hour and Notch1 activation was detected by immunocytochemical staining of Notch1IC (FIG. 1b).
It was determined that insulin facilitates Notch cleavage using immunocytochemical detection.

[4] = test system: mES (D3) cells; test: mES cell plating efficiency, Oct4 and STAT3 phosphorylation in the presence of LIF; type: cell-based, mouse
Source text: FIGS. 10a-10c are a set of images showing JAK inhibition reduces the phosphorylation of STAT3 on Ser727 in mES cell cultures. […] Very low levels of phosphorylated p38 were detectable under all conditions. […] Self-renewal of mES cells correlated with Ser727 phosphorylation.
mES (D3) cells were obtained from ATCC and were maintained in feeder-free cultures on gelatin-coated plates supplemented with 1400 units/ml LIF.
There is great interest in conditions that support the growth of mouse and human ES cells. In contrast to CNS SC (FIG. 2, FIG. 3) and hES SC (se below), the growth of undifferentiated mouse ES cells depends on the stimulation of the JAK/STAT pathway and STAT3 phosphorylation on Tyr705 has been specifically shown to be essential for self-renewal of mouse ES cells (Niwa et al., Genes Dev 12:2048-60, 1998; Matsuda et al., Embo J 18:4261-9, 1999). Ligands that stimulate the JAK/STAT pathway cause human ES cells to differentiate (Daheron et al., Stem Cells 22:770-8, 2004; Humphrey et al., Stem Cells 22:522-30, 2004). It was determined if the Notch/sSTAT survival pathway is present in mouse or human ES cells.

[5] = test system: HSF6 hES cells; test: hES single cell plating efficiency, HSF-6; type: cell-based, human; conditions: one week treatment
Source text: The human ES cell lines HSF-6 (University of California, San Francisco; NIH # UC06, Passage 38-120) and H1 and H9 (WiCell Research Institute, NIH # WA01 and […]) were maintained on mouse embryonic fibroblasts (MEF) according to the suppliers' protocols. Immunocytochemistry and FACS analysis for the expression of Oct4 and SSEA4 and SKY karyotyping established that the starting cells are undifferentiated and have a normal set of chromosomes. For single cell survival experiments, hES colonies were harvested after treatment with 1.5 mg/ml collagenase type IV (Invitrogen), separated from the MEF feeder cells by repeated washing by gravity, gently triturated to break up colonies into small aggregates, further dissociated into a single cell solution by trypsination (0.05% trypsin/0.04% EDTA) and transferred on MEF feeder cells at a density of 10000 cells/ml. Oct-4 positive colonies were counted six days after plating. […]
The pro-survival effects of activation of Notch and inhibition of JAK was tested on HSF-6 (NIH code UC06, http://escell.ucsf.edu), H1 (NIH code WA01, www.wicell.org) and H9 (NIH code WA09, www.wicell.org) hES cells. Singly dissociated hES cells were plated on mouse embryo fibroblasts (MEFs), treated daily for one week and colony numbers counted. […]

[6] = test system: E13.5 cortical embryonic mouse CNS stem cells; test: CNS stem cell plating efficiency / colony formation / survival; type: cell-based; conditions: 5 days, versus FGF2 control; CNTF low 0.01, 0.1 ng/ml or high 20 ng/ml with JAK inhibitor
Protocol: Cell culture: E13.5 cortical embryonic mouse and adult rat subventricular zone CNS stem cells were grown as previously described (Johe et al., Genes Dev 10:3129-40, 1996; Rajan et al., J Neurosci 18:3620-9, 1998). Cells were expanded in serum-free DMEM/F12 medium with N2 supplement with FGF2 (20 ng/ml) for 5 days and were re-plated at 1000-10,000 cells per cm^2. FGF2 was included throughout our experiments, unless otherwise stated.
To explore these paradoxical observations, CNS stem cell cultures from mid-gestation (embryonic day 13.5) mouse dorsal telencephalon were treated with soluble Notch ligands. […] Following initial passaging, the cells were plated at a density of 1000 cells/cm^2, cultured for 5 days in the presence of FGF2, and colony numbers, sizes, and BrdU incorporation (after a 4 hour BrdU pulse) were enumerated. Notch activation by Jagged-1 or Delta-4 (200 ng/ml) increased the number of colonies generated in vitro by over 3-fold (FIG. 1a). […] The effects of Notch activation were most dramatic when treatments were initiated at the start of the culture.
Insulin in the medium is also thought to promote cell survival. […] Seeding cells in the absence of insulin caused the plating efficiency measured at five days to drop to 29.9%±37.9 (FIG. 1e). Delta-4 was able to compensate for the lack of insulin in the medium, and restored plating efficiency (125%±19.4). Because Notch activation improved survival, activation of Akt, a ser/threonine kinase known to be involved in cell survival, was assayed. Notch activation rapidly (5 minutes) promoted the phosphorylation of Akt on Ser473 and […] in both the presence and absence of insulin (FIG. 1f).

[7] = test system: p38, SMAD1/5/8, MSK-1, STAT3 phosphorylation in hES cells; test: Signalling immunoblots in hES cells
Protocol: Immunoblotting: Immunoblotting was performed as previously described (Panchision et al., Genes Dev 15:2094-110, 2001). The following antibodies were used in the experiments described below: pSer473-Akt (92715), pSer308-Akt (9275), pSer2448-mTOR (29715), pThr180/Tyr182-p38 (9211), pSMAD1/5/8 (9511) from Cell Signaling; STAT3 (482), pSer727-STAT3 (8001-R), pTyr705-STAT3 (7993) from Santa Cruz; Sonic Hedgehog (R&D, AF464), nucleostemin (McKay Lab), Hes3 (Chemicon, AB5706), α-tubulin (Sigma, T-6074).
To determine whether in the hES system JAK inhibition reduced p38 activity, cells were treated in the absence of MEF with JAK inhibitor for different times and assayed for p38 phosphorylation.

[8] = test system: nucleostemin, SHH; test: Nucleostemin and SHH protein expression in CNS stem cells; type: cell-based, mouse
Source text: The interest in stem cell self-renewal mechanisms prompted analysis of potential down-stream components of the Notch/STAT3-Ser727 (Notch/sSTAT) pathway. Nucleostemin is a p53-binding protein expressed in self-renewing CNS stem cells and cancer cells (Tsai et al., J Neurosci 20:3725-35, 2000; Tsai et al., J Cell Biol 168:179-84, 2005). Sonic Hedgehog (SHH) is a protein with functions in fate specification and stem cell survival in the fetal and adult CNS (Palma et al., Development 132:335-44, 2005).
There are two forms of mRNA encoded by the Hes3 gene, Hes3a and Hes3b.

Molecule: C[C@H](NC(=O)Cc1cc(F)cc(F)c1)C(=O)N[C@H](C(=O)OC(C)(C)C)c1ccccc1 [DAPT, reference compound]
- basal levels of pSer727 [1]: reduced the basal levels of pSer727
- effect on STAT3-Ser727 phosphorylation following Notch activation [1]: blocked
- effect on Jagged-induced Hes3 mRNA induction [2]: inhibited Hes3 induction by Jagged1
- accumulation of Notch1IC [3]: blocks the accumulation of Notch1IC

Molecule: COc1ccc(S(=O)(=O)Nc2ccccc2CN(C)C/C=C/c2ccc(Cl)cc2)cc1 [KN92, reference compound]
- effect on STAT3-Ser727 phosphorylation following Notch activation [1]: no effect

Molecule: CN(C)S(=O)(=O)c1ccc2c(c1)/C(=C/c1cc3c([nH]1)CCCC3)C(=O)N2 [SU6656, reference compound]
- effect on STAT3-Ser727 phosphorylation following Notch activation [1]: blocked

Molecule: C[S+]([O-])c1ccc(-c2nc(-c3ccc(F)cc3)c(-c3ccncc3)[nH]2)cc1 (stereo not drawn) [p38 inhibitor, 4-(4-Fluorophenyl)-2-(4-methylsulfinylphenyl)-5-(4-pyridyl)1H-imidazole]
- Oct4 expression ([4]; five day treatments in the presence of LIF): did not affect Oct4 expression
- cell survival in a plating efficiency assay ([4]; in the presence of LIF): did not significantly alter cell survival
- human ES cell survival [5]: stimulated human ES cell survival
- CNS stem cell survival / plating efficiency [6]: enhanced survival to a similar extent to the JAK inhibitor
- STAT3 phosphorylation on Ser727 [7]: stimulated STAT3 phosphorylation on Ser727
- phosphorylation of MSK-1 kinase [7]: reduced the phosphorylation of MSK-1 kinase
- phosphorylation of SMAD 1/5/8 [7]: reduced in a time-dependent manner

B1: CNTF: cilliary neurotrophic factor, CNTF (577-NT) from R&D (protein, UniProt P26441 1-200, looked up)
Ciliary neurotrophic factor: MAFTEHSPLTPHRRDLCSRSIWLARKIRSDLTALTESYVKHQGLNKNINLDSADGMPVASTDQWSELTEAERLQENLQAYRTFHVLLARLLEDQQVHFTPTEGDFHQAIHTLLLQVAAFAYQIEELMILLEYKIPRNEADGMPINVGDGGLFEKKLWGLKVLQELSQWTVRSIHDLRFISSHQTGIPARGSHYIANNKKM
- nucleostemin and SHH protein expression [8]: Nucleostemin levels were also increased
- time of peak STAT3 phosphorylation [1]: around 30 min
- concentration at which phosphorylation of STAT3 on Tyr705 occurs ([1]; dose response, 30 minutes): > 1 ng/mL
- concentration inducing phosphorylation of STAT3 on Ser727 ([1]; dose response, 30 minutes): < 0.5 ng/mL
- Hes3 mRNA levels ([2]; CNTF 20 ng/ml): did not induce Hes3 mRNA
- effect on Jagged-induced Hes3 mRNA induction [2]: inhibited Hes3 induction by Jagged1
- Hes3 expression at the protein expression level ([2]; immunohistochemical): inhibits
- CNS stem cell survival / plating efficiency [6]: increased survival; also recorded: support CNS stem cell survival
